The values that follow come from ChEMBL document CHEMBL1201862, “PubChem BioAssay data set” (2004).

Some test systems named below: DU-145; HCC 2998; HCT-116; LOX IMVI; MDA-MB-231; MDA-N; NCI-H460; NCI-H522; OVCAR-3; OVCAR-4; OVCAR-5; PC-3; SF-268; SF-539; SK-MEL-28; SNB-19; T47D; TK-10; HL-60; UO-31.
Holding throughout (test): growth of human tumour cells (NCI), 48 h

Structures can show the parent of a compound that is named as a salt.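 Test compounds were applied to cells in 96-well plates for 48 hours at 5 doses. Here, GI50 denotes the concentration required for 50% inhibition of growth.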 The source made the active and inactive calls. No stated cut-off is given here; in the data, active = GI50 up to about 1.1 µM and inactive = higher.

For the compound `CCOC(=O)c1c(SCCN2CCCC2)n(-c2ccccc2)c(=S)n(-c2ccccc2)c1=O`, the GI50 with DU-145 is 1.68 µM (inactive); with HCC 2998, 1.87 µM (inactive); in the experiment with HCT-116, 4.27 µM (inactive); with LOX IMVI, 1.82 µM (inactive); in the experiment with MDA-MB-231, 2.08 µM (inactive); with MDA-N, 2.36 µM (inactive). The GI50 was 5.81 µM (inactive) with NCI-H460; 1.77 µM (inactive) in the experiment on NCI-H522; 1.78 µM (inactive) in the experiment on OVCAR-3; 13.1 µM (inactive) with OVCAR-4; 26.9 µM (inactive) in the experiment with OVCAR-5; 1.66 µM (inactive) in the experiment with PC-3. The GI50 in the experiment with SF-268 is 4.85 µM (inactive); in the experiment on SF-539, 2.38 µM (inactive); in the experiment on SK-MEL-28 it was 2.75 µM (inactive); in the experiment on SNB-19 it was 17.4 µM (inactive); with T47D it was 2.72 µM (inactive); with TK-10 it was 1.67 µM (inactive).

Consider `CCOC(=O)CSc1nc(-c2ccc(Cl)cc2)c(C#N)c(=O)[nH]1`, for which the GI50 in the experiment on DU-145 is > 100 µM (inactive); in the experiment on HCC 2998, 76 µM (inactive); in the experiment with HCT-116 it was 72.9 µM (inactive); with HL-60 it was 22 µM (inactive); in the experiment with MDA-MB-231, 50.6 µM (inactive); with NCI-H460, > 100 µM (inactive). Also, the GI50 with NCI-H522 is 58.5 µM (inactive); with OVCAR-3, > 100 µM (inactive); in the experiment with OVCAR-4, > 100 µM (inactive); in the experiment with OVCAR-5, > 100 µM (inactive); with PC-3 it was > 100 µM (inactive); in the experiment on SF-268 it was > 100 µM (inactive). The GI50 in the experiment with SF-539 is > 100 µM (inactive); in the experiment on SK-MEL-28, > 100 µM (inactive); in the experiment with SNB-19, 74.8 µM (inactive); in the experiment on T47D it was 85.1 µM (inactive); with TK-10 it was > 100 µM (inactive); in the experiment on UO-31, 77.3 µM (inactive).

On to `Cc1ccc(Nc2cn(COCc3ccccc3)c(=O)[nH]c2=O)cc1`, for which the GI50 in the experiment on DU-145, with HCC 2998, with HCT-116, in the experiment on HL-60, with LOX IMVI and in the experiment with MDA-N was > 100 µM (inactive) in each case. For the same compound, the GI50 in the experiment on NCI-H460 was > 100 µM (inactive); in the experiment with OVCAR-3 it was > 100 µM (inactive); with OVCAR-4, > 100 µM (inactive); in the experiment on OVCAR-5, > 100 µM (inactive); in the experiment with PC-3, > 100 µM (inactive); in the experiment with SF-268, 27.8 µM (inactive). The GI50 was > 100 µM (inactive) with SK-MEL-28, 75.2 µM (inactive) in the experiment on SNB-19 and > 100 µM (inactive) in the experiment with UO-31.

In the case of `O=C1CC(Cl)c2c1csc2Br` (centres undefined), the GI50 in the experiment with DU-145 is 29.4 µM (inactive); with HCC 2998 it was 17.4 µM (inactive); with HCT-116, 15.9 µM (inactive); in the experiment with HL-60, 21.4 µM (inactive); in the experiment with LOX IMVI it was 14.1 µM (inactive); with MDA-N it was 19.3 µM (inactive). For the same compound, the GI50 is 20.4 µM (inactive) in the experiment with NCI-H460; 3.26 µM (inactive) in the experiment on NCI-H522; 16.3 µM (inactive) in the experiment with OVCAR-3; 25.9 µM (inactive) in the experiment with OVCAR-4; 18.2 µM (inactive) in the experiment with OVCAR-5; 12.8 µM (inactive) in the experiment on PC-3. Besides, the GI50 in the experiment with SF-268 is 16.8 µM (inactive); with SF-539, 3 µM (inactive); in the experiment on SK-MEL-28 it was 17.8 µM (inactive); in the experiment with SNB-19, 17.5 µM (inactive); with T47D, 23.1 µM (inactive); in the experiment with TK-10 it was 16 µM (inactive). Further, the GI50 in the experiment with UO-31 was 8.93 µM (inactive).

Turning to `Nc1nc(Cl)c2nnn(CC3CCC(CO)C3)c2n1` (centres undefined), the GI50 in the experiment on DU-145, with HCC 2998, in the experiment with HCT-116, in the experiment with LOX IMVI, in the experiment on MDA-MB-231 and with MDA-N was > 100 µM (inactive) each time. The GI50 in the experiment on OVCAR-3, in the experiment with OVCAR-4, in the experiment with OVCAR-5, in the experiment on PC-3, in the experiment on SF-268 and in the experiment on SF-539 was > 100 µM (inactive) throughout. Further, the GI50 in the experiment with SK-MEL-28, with SNB-19, in the experiment with T47D, in the experiment on TK-10 and in the experiment on UO-31 was > 100 µM (inactive) throughout.

In the case of `CCOC(=O)N1CCN(c2ccc3ccc(N)nc3n2)CC1`, the GI50 in the experiment with DU-145, in the experiment with HCC 2998, with HCT-116, in the experiment with HL-60, in the experiment with LOX IMVI and in the experiment with MDA-MB-231 was > 100 µM (inactive) throughout. The GI50 was > 100 µM (inactive) in the experiment on MDA-N; 71.6 µM (inactive) with NCI-H460; > 100 µM (inactive) with NCI-H522; > 100 µM (inactive) with OVCAR-3; > 100 µM (inactive) in the experiment on OVCAR-4; > 100 µM (inactive) in the experiment on OVCAR-5. For the same compound, the GI50 in the experiment with PC-3, in the experiment with SF-268, in the experiment on SF-539, with SK-MEL-28, in the experiment on SNB-19 and in the experiment on TK-10 was > 100 µM (inactive) throughout. Moreover, in the experiment on UO-31, the GI50 is > 100 µM (inactive).

For the compound `COc1ccccc1NC(=O)CC(=O)N1N=C(N2c3ccccc3Sc3ccccc32)CC1c1ccccc1` (centres undefined), the GI50 in the experiment on DU-145, in the experiment on HCC 2998, in the experiment on HCT-116, in the experiment with HL-60, in the experiment on MDA-MB-231 and in the experiment on NCI-H460 was > 100 µM (inactive) throughout. For the same compound, the GI50 in the experiment with NCI-H522, with OVCAR-3, in the experiment on OVCAR-4, in the experiment with OVCAR-5, in the experiment with PC-3 and in the experiment on SF-268 was > 100 µM (inactive) each time. In addition, the GI50 in the experiment with SF-539, in the experiment on SK-MEL-28, with SNB-19, with T47D, with TK-10 and in the experiment on UO-31 was > 100 µM (inactive) in each case.

For `Cc1ccc(-c2c(C#N)c(-c3ccccc3)n(NS(=O)(=O)c3ccc(C)cc3)c(=O)c2C#N)cc1`, the GI50 in the experiment with HCC 2998 was 47.4 µM (inactive); in the experiment with HCT-116 it was 35.1 µM (inactive); with LOX IMVI, 26.7 µM (inactive); with MDA-MB-231, > 100 µM (inactive); in the experiment with MDA-N, 71.8 µM (inactive); in the experiment on NCI-H460, 34.3 µM (inactive). In addition, the GI50 is 39.2 µM (inactive) with NCI-H522; 43.5 µM (inactive) in the experiment with OVCAR-4; > 100 µM (inactive) in the experiment on OVCAR-5; 36.6 µM (inactive) with PC-3; 90.8 µM (inactive) with SF-268; 34 µM (inactive) in the experiment with SF-539. Moreover, the values for the GI50 in the experiment on SK-MEL-28, in the experiment on SNB-19 and in the experiment on TK-10 were 52.1 µM (inactive), 50.8 µM (inactive) and 55.3 µM (inactive), respectively.

Turning to `CC1=CC2(O)OC3(CC2=C(C)C)C(C)CCC13` (centres undefined), the GI50 with DU-145, in the experiment on HCT-116, with HL-60, in the experiment with LOX IMVI, with MDA-MB-231 and in the experiment with MDA-N was > 100 µM (inactive) each time. Moreover, the GI50 in the experiment with NCI-H522, in the experiment on OVCAR-3, in the experiment with OVCAR-4, in the experiment with OVCAR-5, in the experiment on SF-268 and in the experiment on SF-539 was > 100 µM (inactive) each time. In addition, the GI50 with SNB-19 was > 100 µM (inactive); in the experiment with T47D, > 100 µM (inactive); in the experiment on TK-10 it was > 100 µM (inactive); with UO-31 it was 44.4 µM (inactive).

In the case of `Cc1cccc(-c2cc(O)c3cccnc3n2)c1`, the GI50 with DU-145 was 3.94 µM (inactive); in the experiment on HCC 2998 it was 1.98 µM (inactive); in the experiment with HCT-116, 0.385 µM (active); with HL-60, 0.128 µM (active); in the experiment with LOX IMVI, 0.512 µM (active); in the experiment with MDA-MB-231 it was 2.09 µM (inactive). The GI50 in the experiment on MDA-N was 0.0431 µM (active); in the experiment with NCI-H460, 0.475 µM (active); in the experiment on NCI-H522 it was 0.553 µM (active); in the experiment with OVCAR-3 it was 0.301 µM (active); with OVCAR-4, 24 µM (inactive); in the experiment with OVCAR-5 it was 2.96 µM (inactive). The GI50 in the experiment with PC-3 is 1.12 µM (inactive); with SF-268, 59 µM (inactive); in the experiment with SF-539 it was 0.92 µM (active); in the experiment with SK-MEL-28 it was 0.406 µM (active); with SNB-19, 1.69 µM (inactive); with UO-31 it was > 100 µM (inactive).

For `NCCc1cc(O)c(O)cc1O` [OXIDOPAMINE HYDROCHLORIDE], the GI50 with DU-145 was 17.7 µM (inactive); with HCC 2998 it was 56.2 µM (inactive); in the experiment on HCT-116, 18.7 µM (inactive); in the experiment with MDA-MB-231 it was 19.5 µM (inactive); with MDA-N, 22.6 µM (inactive); in the experiment on NCI-H460 it was 29.2 µM (inactive). The GI50 in the experiment on OVCAR-3 is 55.7 µM (inactive); in the experiment on OVCAR-5 it was 37.1 µM (inactive); in the experiment on PC-3 it was 33.1 µM (inactive); in the experiment on SF-268, 21.8 µM (inactive); in the experiment with SF-539, 19.2 µM (inactive); in the experiment on SK-MEL-28, > 100 µM (inactive). Besides, the GI50 was 32.5 µM (inactive) with SNB-19, 23.1 µM (inactive) with T47D, 62.5 µM (inactive) in the experiment with TK-10 and 25.2 µM (inactive) in the experiment with UO-31.
